{"source": "paper PMC12584752", "about": "“Covalent fragment screening to inhibit the E3 ligase activity of bacterial NEL enzymes SspH1 and SspH2” (RSC Chemical Biology, 2025)", "key": {"SspH2 (aa 166–783)": {"biological_target": "T1, SspH2 (aa 166–783) (Salmonella typhimurium, UniProt D0ZPH9)", "T1 construct": "Recombinant SspH1 (aa 161–700) and SspH2 (aa 166–783) were both characterised; His-tag (N, cleaved yes); made in house; host or cells: E. coli BL21", "T1 sequence (D0ZPH9 166-783)": "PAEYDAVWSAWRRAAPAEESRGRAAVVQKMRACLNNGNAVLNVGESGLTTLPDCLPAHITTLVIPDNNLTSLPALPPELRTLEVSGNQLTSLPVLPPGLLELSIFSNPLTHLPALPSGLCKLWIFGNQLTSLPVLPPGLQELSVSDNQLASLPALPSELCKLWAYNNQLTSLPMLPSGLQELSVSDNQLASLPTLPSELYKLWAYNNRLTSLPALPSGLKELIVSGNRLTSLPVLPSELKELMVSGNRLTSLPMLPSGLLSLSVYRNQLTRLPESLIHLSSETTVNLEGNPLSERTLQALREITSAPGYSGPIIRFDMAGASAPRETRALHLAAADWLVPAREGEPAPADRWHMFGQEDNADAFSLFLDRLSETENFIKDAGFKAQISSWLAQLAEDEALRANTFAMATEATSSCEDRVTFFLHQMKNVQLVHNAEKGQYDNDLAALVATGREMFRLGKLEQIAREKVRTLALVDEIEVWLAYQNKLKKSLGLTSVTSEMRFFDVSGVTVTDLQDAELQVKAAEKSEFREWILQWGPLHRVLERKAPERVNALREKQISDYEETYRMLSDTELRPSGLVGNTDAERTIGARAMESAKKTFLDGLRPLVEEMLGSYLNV", "experiment": "Full kinetics characterisation of covalent labelling by intact LC-MS", "type": "binding", "conditions": "for fold higher kinact/KI with SspH2 than SspH1: SspH2 versus SspH1", "method": "Fig. 3 Validation of HTC hit compounds by intact MS. Labelling heatmaps of dilution series (100–6.25 μM) of compounds 4–10 with (A) WT SspH1 and (B) C492K SspH1. Labelling heatmaps of dilution series of (C) compound 6 and (D) compound 7 with bacterial and human ubiquitin binding proteins. Recombinant proteins were incubated at either 1.0 or 0.5 μM with 50 μM fragments for 24 hours at 4 °C, before fragment labelling was analysed by intact LC-MS. Bacterial proteins are shown in bold and human proteins in italic fonts. (E)–(H) Kinetics analyses: time courses (0–12 hours) of compound labelling (100–1.56 μM) of SspH1 and SspH2 (0.5 μM) for (E) SspH1 and compound 7, and (F) SspH2 and compound 6. Measurements were performed in technical triplicates. Labelling percentages were plotted against time in GraphPad Prism v.10, and curves fitted separately for each replicate using one-phase association, with constraints Y0 = 0 and plateau = highest labelling percentage. Graphs for SspH1 and compound 6, and SspH2 and compound 7 are shown in Fig. S4A and B. Rate constants (kobs, as given by Graphpad Prism calculated K values) were plotted against fragment concentration in triplicate for (G) SspH1 and (H) SspH2. Straight lines were fitted with constraint Yintercept = 0. For SspH2 kinetics, 100 μM kobs was outside the linear range.\nTo further understand and compare the labelling of SspH1 and SspH2, we performed a full kinetic analysis of compounds 6 and 7 with both proteins (Fig. 3E–H and Fig. S4A, B). […] Up to a maximum test concentration of 100 μM, the kobsvs. concentration plot was linear for SspH1 so it was not possible to derive individual values of kinact and KI. For SspH2, the relationship was also linear up to 50 μM so it was still only possible to reliably calculate kinact/KI. Nonetheless, we can infer from these plots KI values (SspH1) >100 μM and KI values […] for compounds 6 and 7. From these lower bounds on KI it is clear that the range of ligand efficiencies reflecting the reversible binding interactions with SspH1 and 2 are low (0.19–0.21) and may hint at a challenging binding site for optimising a small molecule inhibitor. Identification of alternative hit series and/or X-ray crystallography would be expected to yield further insight into this putative small molecule binding site. […] At present we don’t understand the molecular basis for the increased reactivity of SspH2 over SspH1, and can only speculate that subtle differences in the active site environment render the catalytic cysteine more reactive.\nRecombinant SspH1 (aa 161–700) and SspH2 (aa 166–783) were both characterised against compounds 6 and 7. A dilution series in DMSO was prepared for the compound, and 1 μL added to three separate wells in a 384 well plate, representing technical triplicates of each condition. 99 μL of 0.5 μM SspH1 or SspH2 in 25 mM HEPES pH 7.5, 50 mM NaCl buffer was added to the wells and mixed thoroughly (final compound concentrations 100, 50, 25, 12.5, 6.25, 3.125, 1.56 μM). This mixture was then dispensed into 8 wells of 10 μL each in a new 384 well plate, one for each time point. The plate was incubated at 4 °C during intact MS. Intact protein LC-MS was performed as previously described,[40] at approximate time points 0, 1, 2, 4, 6, 8 and 12 hours, and deconvoluted as above. The exact times of each measurement were saved with each reading and used for kinetics calculations. Labelling percentages were plotted against time in GraphPad Prism v.10, and curves fitted separately for each replicate using one-phase association, with constraints Y0 = 0 and plateau = highest labelling percentage. Rate constants (kobs, as given by Graphpad Prism calculated K values) were then plotted against concentration in triplicate, and straight lines fitted with constraint Yintercept = 0. Data are presented as mean ± SD, n = 3. Slope values were converted from μM^−1 hour^−1 to M^−1 s^−1 to give kinact/KI values. […]"}, "SspH1 (161–700)": {"biological_target": "SspH1 (161–700) (Salmonella typhimurium, UniProt D0ZVG2)", "sequence (D0ZVG2 161-700)": "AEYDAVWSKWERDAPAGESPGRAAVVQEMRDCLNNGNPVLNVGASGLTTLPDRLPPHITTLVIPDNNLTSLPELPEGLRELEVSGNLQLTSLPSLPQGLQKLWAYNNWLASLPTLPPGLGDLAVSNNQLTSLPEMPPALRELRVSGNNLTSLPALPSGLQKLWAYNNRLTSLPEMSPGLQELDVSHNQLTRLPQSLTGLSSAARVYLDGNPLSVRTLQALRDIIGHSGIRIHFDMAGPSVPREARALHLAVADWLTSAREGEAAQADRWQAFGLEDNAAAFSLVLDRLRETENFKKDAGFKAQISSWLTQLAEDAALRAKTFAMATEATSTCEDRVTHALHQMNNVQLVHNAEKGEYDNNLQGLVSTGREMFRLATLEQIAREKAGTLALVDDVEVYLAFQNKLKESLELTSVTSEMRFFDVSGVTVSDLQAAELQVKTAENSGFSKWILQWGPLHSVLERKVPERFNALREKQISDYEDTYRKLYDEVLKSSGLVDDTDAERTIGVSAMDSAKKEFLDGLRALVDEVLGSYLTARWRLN", "experiment": "E2–Ub discharge assay", "type": "biochemical", "design": "Recombinant IpaH9.8 (21–545) and SspH1 (161–700) were incubated at 0.5 μM; His-tag (N, cleaved yes); made in house; host or cells: E. coli BL21", "conditions": "SspH1 pre-labelled with compound overnight at RT; UbcH5A–Ub-cy3 1 μM, 0–30 minutes", "source_text": "We next wanted to understand whether compounds 6 and 7 interfered with SspH1 E3 activity and turned to in vitro assays to assess E3 ligase activity. In the absence of substrate, NEL E3 ligases non-productively discharge ubiquitin from the E2–Ub thioester, a reaction that proceeds via an unstable E3-thioester intermediate.[27] This activity can be followed by E2–Ub discharge assays (Fig. 4A). We compared discharge activity of SspH1 with UbcH5A–Ub-cy3 (E2–Ub*) pre-treated with a DMSO control or compounds 6 or 7 (Fig. 4B). To ensure complete compound labelling, SspH1 was pre-incubated with the compounds overnight at room temperature, as opposed to at 4 °C which enabled us to study kinetics previously.\nFig. 4 SspH1 in vitro inhibition with compounds 6 and 7. (A) Discharge assay schematic; (B) E2–Ub discharge time course assay with SspH1 pre-treated with either DMSO or compounds 6 or 7. UbcH5A–Ub-cy3 (1 μM) was incubated at RT for 0–30 minutes with SspH1 (residues 161–700, 50 nM) which had been pre-labelled with 6 or 7 at RT overnight. (C) Substrate ubiquitination assay schematic; (D) PKN1 ubiquitination time course assay with SspH1 pre-treated with either DMSO or compounds 6 or 7. […]"}}}
{"compound": "Cc1cc(-c2nc3ccccc3n2C2CCN(C(=O)CCl)CC2)cc(C)c1O.Cl", "note": "[compound 6]", "values": [{"measurement": "Ki", "setting": "SspH2 (aa 166–783)", "value": "> 50", "unit": "µM"}, {"measurement": "kinact/KI", "setting": "SspH2 (aa 166–783)", "value": 6.9, "unit": "M⁻¹ s⁻¹"}, {"measurement": "fold higher kinact/KI with SspH2 than SspH1", "setting": "SspH2 (aa 166–783)", "value": "4–5 fold"}, {"measurement": "SspH1 E2–Ub discharge activity", "setting": "SspH1 (161–700)", "value": "completely abrogated"}]}
{"compound": "Cl.O=C(CCl)N1CCC(n2c(-c3ccc(C(F)(F)F)cc3)nc3ccccc32)CC1", "note": "[compound 7]", "values": [{"measurement": "Ki", "setting": "SspH2 (aa 166–783)", "value": "> 50", "unit": "µM"}, {"measurement": "kinact/KI", "setting": "SspH2 (aa 166–783)", "value": 6.2, "unit": "M⁻¹ s⁻¹"}, {"measurement": "fold higher kinact/KI with SspH2 than SspH1", "setting": "SspH2 (aa 166–783)", "value": "4–5 fold"}, {"measurement": "SspH1 E2–Ub discharge activity", "setting": "SspH1 (161–700)", "value": "completely abrogated"}]}
